Assay type: biochemical
Details: pH 7.4

α-hemolysin [αHL]
single-channel conductance of the αHL channel: ~900 pS
